From patent US6387896B1, “Bicyclic oxazolidinones as antibacterial agents” (Pharmacia & Upjohn Co., priority 1999, dated 2002)
≈ marks a conversion by molar mass, not a printed value.

Tests used:
[1] = system: Methicillin-susceptible S. aureus UC® 9213; experiment: Minimum inhibitory concentration (MIC) by agar dilution, S. aureus; assay type: cell-based; conditions: Staphylococcus aureus, UC9213, lowest concentration that inhibits visible growth
Source text: (§1) The oxazolidinone antibacterial agents of this invention have useful activity against a variety of organisms. The in vitro activity of compounds of this invention can be assessed by standard testing procedures such as the determination of minimum inhibitory concentration (MIC) by agar dilution as described in “Approved Standard. Methods for Dilution Antimicrobial Susceptibility Tests for Bacteria That Grow Aerobically”, 3rd. ed., published 1993 by the National Committee for Clinical Laboratory Standards, Villanova, Pa., USA. The activity of compounds of this invention against Staphylococcus aureus, Staphylococcus epidermidis, Streptococcus pneumoniae, Enterococcus faecalis, Moraxella catarrhalis and H. influenzae is shown in Table 1. No. 1 is Methicillin-susceptible S. aureus UC® 9213. No. 2 is Moraxella catarrhalis UC® 30610. Minimum inhibitory concentration: lowest concentration of drug (μg/mL) that inhibits visible growth of the organism.

[2] = system: Moraxella catarrhalis UC® 30610; experiment: Minimum inhibitory concentration (MIC) by agar dilution, Moraxella catarrhalis; assay type: cell-based; conditions: UC30610, lowest concentration that inhibits visible growth, read-out: Minimum Inhibitory Concentration M.CAT.
Source text: as §1

Row | melting point | MIC [1] | MIC [2] | Structure (SMILES)
1 | 118 to 119 °C | 2 µg/mL (≈ 6.04 µM) | 4 µg/mL (≈ 12.1 µM) | CCC(=O)NC[C@H]1CN(c2ccc3c(c2)C[C@@H](C)N3C=O)C(=O)O1 [Example 5, N-({(5S)-3-[(2R)-1-Formyl-2-methyl-2,3-dihydro-1H-indol-5-yl]-2-oxo-1,3-oxazolidin-5-yl}methyl)propanamide]
2 |  | 4 µg/mL (≈ 11.5 µM) | 4 µg/mL (≈ 11.5 µM) | CC(=O)NC[C@H]1CN(c2ccc3c(c2)C[C@@H](C)N3C(=O)CO)C(=O)O1 [Example 3, N-({(5S)-3-[(2R)-1-Glycoloyl-2-methyl-2,3-dihydro-1H-indol-5-yl]-2-oxo-1,3-oxazolidin-5-yl}methyl)acetamide]
3 | 130 to 133 °C |  |  | CC(=O)NC[C@H]1CN(c2ccc3c(c2)CC(C)N3C(=O)CO)C(=O)O1 (stereo partly drawn) [Example 2, N-{[(5S)-3-(1-Glycoloyl-2-methyl-2,3-dihydro-1H-indol-5-yl)-2-oxo-1,3-oxazolidin-5-yl]methyl}acetamide]
4 | 127 to 130 °C |  |  | CC(=O)NC[C@H]1CN(c2ccc3c(c2)CC(C)N3CCF)C(=O)O1 (stereo partly drawn) [Example 1, N-({(5S)-3-[1-(2-Fluoroethyl)-2-methyl-2,3-dihydro-1H-indol-5-yl]-2-oxo-1,3-oxazolidin-5-yl}methyl)acetamide]
5 | 184 to 186 °C | < 0.5 µg/mL | 1 µg/mL (≈ 2.88 µM) | CC(=S)NC[C@H]1CN(c2ccc3c(c2)CC[C@@H](C)N3C=O)C(=O)O1 [Example 15, N-({(5S)-3-[(2R)-1-Formyl-2-methyl-1,2,3,4-tetrahydro-6-quinolinyl]-2-oxo-1,3-oxazolidin-5-yl}methyl)ethanethioamide]
6 | 148 to 151 °C | 4 µg/mL (≈ 12 µM) | 8 µg/mL (≈ 24 µM) | CC(=O)NC[C@H]1CN(c2ccc3c(c2)OC[C@@H](C)N3C=O)C(=O)O1 [Example 17, N-({(5S)-3-[(3R)-4-Formyl-3-methyl-3,4-dihydro-2H-1,4-benzoxazin-7-yl]-2-oxo-1,3-oxazolidin-5-yl}methyl)acetamide]
7 | 95 to 96 °C | < 0.5 µg/mL | 1 µg/mL (≈ 3 µM) | CC(=S)NC[C@H]1CN(c2ccc3c(c2)C[C@@H](C)N3C=O)C(=O)O1 [Example 6, N-({(5S)-3-[(2R)-1-Formyl-2-methyl-2,3-dihydro-1H-indol-5-yl]-2-oxo-1,3-oxazolidin-5-yl}methyl)ethanethioamide]
8 |  | 1 µg/mL | 4 µg/mL | CC(=O)OCC(=O)N1c2ccc(N3C[C@H](CNC(C)=S)OC3=O)cc2C[C@H]1C [Example 11, 2-((2R)-5-{(5S)-5-[(Ethanethioylamino)methyl]-2-oxo-1,3-oxazolidin-3-yl}-2-methyl-2,3-dihydro-1H-indol-1-yl)-2-oxoethyl acetate]
9 | 115 to 117 °C | < 0.5 µg/mL | 1 µg/mL (≈ 2.75 µM) | CC(=S)NC[C@H]1CN(c2ccc3c(c2)C[C@@H](C)N3C(=O)CO)C(=O)O1 [Example 12, N-({(5S)-3-[(2R)-1-Glycoloyl-2-methyl-2,3-dihydro-1H-indol-5-yl]-2-oxo-1,3-oxazolidin-5-yl}methyl)ethanethioamide]
10 | 158 to 159 °C | 1 µg/mL (≈ 3.15 µM) | 4 µg/mL (≈ 12.6 µM) | CC(=O)NC[C@H]1CN(c2ccc3c(c2)C[C@@H](C)N3C=O)C(=O)O1 [Example 4, N-({(5S)-3-[(2R)-1-Formyl-2-methyl-2,3-dihydro-1H-indol-5-yl]-2-oxo-1,3-oxazolidin-5-yl}methyl)acetamide]
11 | 109 to 111 °C | 4 µg/mL (≈ 11 µM) | 8 µg/mL (≈ 22.1 µM) | CNC(=S)N1c2ccc(N3C[C@H](CNC(C)=O)OC3=O)cc2C[C@H]1C [Example 10, N-[((5S)-3-{(2R)-2-Methyl-1-[(methylamino)carbothioyl]-2,3-dihydro-1H-indol-5-yl}-2-oxo-1,3-oxazolidin-5-yl)methyl]acetamide]
12 |  | 4 µg/mL (≈ 13.1 µM) | 16 µg/mL (≈ 52.2 µM) | CC(=O)NCC1CN(c2ccc3c(c2)CC(C)S3)C(=O)O1 (stereo in doubt) [Example 20, N-{[(5R)-3-(2(+)-methyl-2,3-dihydro-1-benzothien-5-yl)-2-oxo-1,3-oxazolidin-5-yl]methyl}acetamide]
13 |  | 4 µg/mL (≈ 10.1 µM) | 8 µg/mL (≈ 20.3 µM) | CC(=O)NC[C@H]1CN(c2ccc(N3CCN(C(=O)CO)CC3)c(F)c2)C(=O)O1 [eperezolid, reference compound]
14 | 184 to 185 °C | 2 µg/mL (≈ 6.04 µM) | 8 µg/mL (≈ 24.1 µM) | CC(=O)NC[C@H]1CN(c2ccc3c(c2)C[C@@H](C)N3C(C)=O)C(=O)O1 [Example 9, N-({(5S)-3-[(2R)-1-Acetyl-2-methyl-2,3-dihydro-1H-indol-5-yl]-2-oxo-1,3-oxazolidin-5-yl}methyl)acetamide]
15 | 89 to 91 °C | 2 µg/mL (≈ 6.04 µM) | 4 µg/mL (≈ 12.1 µM) | CC(=O)NC[C@H]1CN(c2ccc3c(c2)CC[C@@H](C)N3C=O)C(=O)O1 [Example 14, N-({(5S)-3-[(2R)-1-Formyl-2-methyl-1,2,3,4-tetrahydro-6-quinolinyl]-2-oxo-1,3-oxazolidin-5-yl}methyl)acetamide]
16 | 132 to 136 °C | 4 µg/mL (≈ 11.9 µM) | 16 µg/mL (≈ 47.7 µM) | CC(=O)NC[C@H]1CN(c2ccc3c(c2)CC(CF)N3C=O)C(=O)O1 (stereo partly drawn) [Example 19, (S)-N-[[3-[1-Formyl-2-(fluoromethyl)-5-indolinyl]-2-oxo-5-oxazolidinyl]methyl]acetamide]
17 | 118 to 121 °C (dec.) |  |  | CC(=O)NC[C@H]1CN(c2ccc3c(c2)OCC(C)N3C=O)C(=O)O1 (stereo partly drawn) [Example 16, N-{[(5S)-3-(4-Formyl-3-methyl-3,4-dihydro-2H-1,4-benzoxazin-7-yl)-2-oxo-1,3-oxazolidin-5-yl]methyl}acetamide]
18 |  | 4 µg/mL (≈ 11.9 µM) | 8 µg/mL (≈ 23.7 µM) | CC(=O)NC[C@H]1CN(c2ccc(N3CCOCC3)c(F)c2)C(=O)O1 [linezolid, reference compound]
19 | 186 to 187 °C | 8 µg/mL | 16 µg/mL | CC(=O)NC[C@H]1CN(c2ccc3c(c2)C[C@@H](C)N3C(=O)COC(C)=O)C(=O)O1 [Example 8, 2-((2R)-5-{(5S)-5-[(Acetylamino)methyl]-2-oxo-1,3-oxazolidin-3-yl}-2-methyl-2,3-dihydro-1H-indol-1-yl)-2-oxoethyl acetate]
20 | 85 to 87 °C |  |  | CC(=O)NC[C@H]1CN(c2ccc3c(c2)CCC(C)N3C=O)C(=O)O1 (stereo partly drawn) [Example 13, N-{[(5S)-3-(1-Formyl-2-methyl-1,2,3,4-tetrahydro-6-quinolinyl)-2-oxo-1,3-oxazolidin-5-yl]methyl}acetamide]
21 | 174 to 175 °C | 4 µg/mL (≈ 11.1 µM) | 8 µg/mL (≈ 22.1 µM) | COCC(=O)N1c2ccc(N3C[C@H](CNC(C)=O)OC3=O)cc2C[C@H]1C [Example 7, N-({(5S)-3-[(2R)-1-(2-Methoxyacetyl)-2-methyl-2,3-dihydro-1H-indol-5-yl]-2-oxo-1,3-oxazolidin-5-yl}methyl)acetamide]
22 | 219 to 221 °C | 2 µg/mL (≈ 5.33 µM) | 4 µg/mL (≈ 10.7 µM) | CC(=S)NC[C@H]1CN(c2ccc3c(c2)CC(C(C)(C)C)N3C=O)C(=O)O1 (stereo partly drawn) [Example 21, N-[[(5S)-3-[2-(1,1-dimethylethyl)-1-formyl-2,3-dihydro-1H-indol-5-yl]-2-oxo-5-oxazolidinyl]methyl]ethanethioamide]
23 | 95 to 98 °C | < 0.5 µg/mL | 2 µg/mL (≈ 5.72 µM) | CC(=S)NC[C@H]1CN(c2ccc3c(c2)OC[C@@H](C)N3C=O)C(=O)O1 [Example 18, N-({(5S)-3-[(3R)-4-Formyl-3-methyl-3,4-dihydro-2H-1,4-benzoxazin-7yl]-2-oxo-1,3-oxazolidin-5-yl}methyl)ethanethioamide]

Row | Structure (SMILES) | melting point | MIC [1] | MIC [2]
24 | CN[C@H](CC(C)C)C(=O)N[C@H]1C(=O)N[C@@H](CC(N)=O)C(=O)N[C@H]2C(=O)N[C@H]3C(=O)N[C@H](C(=O)N[C@H](C(=O)O)c4cc(O)cc(O)c4-c4cc3ccc4O)[C@H](O)c3ccc(c(Cl)c3)Oc3cc2cc(c3O[C@@H]2O[C@H](CO)[C@@H](O)[C@H](O)[C@H]2O[C@H]2C[C@](C)(N)[C@H](O)[C@H](C)O2)Oc2ccc(cc2Cl)[C@H]1O [vancomycin, reference compound] |  | 1 µg/mL (≈ 0.69 µM) | > 32 µg/mL
